The record followed here is patent EP4786455A1, “NOVEL PHTHALAZINE DERIVATIVE COMPOUND AS SOS1 INHIBITOR, AND USE THEREOF” (Hanmi Pharmaceutical Co., Ltd., priority 2023, dated 2025).

Some results are limits rather than exact numbers.

This assay deals with T1, SOS1 (Homo sapiens, UniProt Q07889).
T1 construct: comprising amino acid residues 564-1049 corresponding to the catalytic domain; purchased Reaction Biology Corp. SOS1-Strep #MSC-11-502; GST-KRAS G12C #MSC-11-538
T1 sequence (Q07889 564-1049): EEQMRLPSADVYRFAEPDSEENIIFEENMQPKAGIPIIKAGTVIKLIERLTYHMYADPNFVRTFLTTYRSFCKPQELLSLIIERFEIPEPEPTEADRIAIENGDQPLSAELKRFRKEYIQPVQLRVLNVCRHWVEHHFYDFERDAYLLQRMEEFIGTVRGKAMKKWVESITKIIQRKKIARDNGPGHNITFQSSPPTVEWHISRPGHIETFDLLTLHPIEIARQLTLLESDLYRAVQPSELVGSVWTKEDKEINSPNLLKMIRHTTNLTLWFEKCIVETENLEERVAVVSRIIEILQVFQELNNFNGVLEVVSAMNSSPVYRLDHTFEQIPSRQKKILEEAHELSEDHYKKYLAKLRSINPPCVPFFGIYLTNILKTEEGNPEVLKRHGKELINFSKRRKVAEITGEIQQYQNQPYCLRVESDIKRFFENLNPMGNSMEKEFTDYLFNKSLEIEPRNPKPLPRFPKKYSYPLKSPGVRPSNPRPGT
The experiment in a line: Inhibitory activity on SOS1-mediated GTP exchange (HTRF / TR-FRET nucleotide exchange assay on KRAS G12C). It counts as biochemical. Particulars: SOS1-mediated GTP exchange on GST-KRAS G12C (residues 2-169); SOS1-Strep catalytic domain (564-1049); GTP-DY-647P1; HTRF signal; 5-point concentration series up to 1,000 nM. Here is the method: To evaluate whether the SOS1-mediated nucleotide exchange activity on KRAS G12C is inhibited by the compounds of the above Examples, a homogeneous time-resolved fluorescence (homogenous time-resolved fluorescence, HTRF) assay was performed using GST-KRAS G12C (#MSC-11-538) and SOS1-Strep (#MSC-11-502) obtained from Reaction Biology Corp. (USA, MA). The activity of SOS1 was determined by measuring the amount of GTP bound to the KRAS G12C protein based on the principle of time-resolved fluorescence resonance energy transfer (time-resolved fluorescence energy transfer, TR-FRET). Terbium (Terbium) conjugated to an anti-GST antibody bound to the GST tag of the GST-KRAS G12C protein served as a FRET donor, and GTP bound to the KRAS G12C protein was labeled with the fluorophore DY-647P1, serving as a FRET acceptor. Based on this principle, a higher HTRF or FRET signal is observed as more GTP is bound to KRAS G12C due to the SOS1-mediated exchange reaction in the assay.
In summary, a GST-labeled KRAS G12C protein (comprising amino acid residues 2-169), a […] SOS1 protein (comprising amino acid residues 564-1049 corresponding to the catalytic domain), an anti-GST antibody, labeled nucleotide GTP-DY-647P1, and the test compound were mixed in a buffer solution containing 20 mM HEPES (pH 7.4), 150 mM NaCl, 5 mM MgCl2, 1 mM dithiothreitol (DTT), 0.05% BSA, and 0.0025% NP40. The mixture was dispensed into a 384-well plate, incubated at room temperature, and the HTRF signal was measured using a PHERAstar microplate reader (BMG Labtech). The excitation wavelength was 337 nm, and emission was measured at 620/665 nm. A background signal value was determined from fluorescence measurements obtained in the absence of SOS1 protein and was subtracted from all measured HTRF values. A control value was determined from fluorescence measurements obtained in the absence of the synthesized compounds and was set as the 100% reference. Fluorescence signals were measured at compound concentrations of 0.1, 1, 10, 100, and 1,000 nM (5 points, 10-fold) or 1.6, 8, 40, 200, and 1,000 nM (5 points, 5-fold). The 50% inhibitory concentration (IC50) values of the compounds were calculated using GraphPad Prism.
IC50 values were denoted as +++ when 50 nM or less, ++ when greater than 50 nM and 100 nM or less, and + when greater than 100 nM.
In general terms: In TR-FRET formats the signal depends on donor and acceptor labels being close together.

By IC50 is commonly meant the concentration at which inhibition is half-maximal. A low value points to higher potency. The compound `CNc1cc2c(N[C@H](C)c3cccc(C#N)c3C)nnc(C)c2cc1C(=O)N1CCN(C(C)C)CC1` [Example 21, (R)-3-(1-((6-(4-isopropylpiperazine-1-carbonyl)-4-methyl-7-(methylamino)phthalazin-1-yl)amino)ethyl)-2-methylbenzonitrile] had a 50% inhibitory concentration (IC50) of at most 50 nM.

Turning to `COc1cc2c(N[C@H](C)c3cccc(C#N)c3C)nnc(C)c2cc1CN1CCOCC1` [Example 28, (R)-3-(1-((7-methoxy-4-methyl-6-(morpholinomethyl)phthalazin-1-yl)amino)ethyl)-2-methylbenzonitrile], the IC50 is at most 50 nM.

`CNc1cc2c(N[C@H](C)c3cccc(C#N)c3C)nnc(C)c2cc1C(=O)N1CCOCC1` [Example 1, (R)-2-methyl-3-(1-((4-methyl-7-(methylamino)-6-(morpholine-4-carbonyl)phthalazin-1-yl)amino)ethyl)benzonitrile] returned an IC50 of at most 50 nM.

Consider `CNc1cc2c(N[C@H](C)c3cccc(C#N)c3C)nnc(C)c2cc1C(=O)N1CCC(N2CCOCC2)CC1` [Example 22, (R)-2-methyl-3-(1-((4-methyl-7-(methylamino)-6-(4-morpholinopiperidin-1-carbonyl)phthalazin-1-yl)amino)ethyl)benzonitrile], for which the IC50 was at most 50 nM.

In the case of `CNc1cc2c(N[C@H](C)c3cccc(C#N)c3C)nnc(C)c2cc1C(=O)N1CCC(F)(F)CC1` [Example 10, (R)-3-(1-((6-(4,4-difluoropiperidin-1-carbonyl)-4-methyl-7-(methylamino)phthalazin-1-yl)amino)ethyl)-2-methylbenzonitrile], the IC50 was at most 50 nM.

`CNc1cc2c(N[C@H](C)c3cccc(C#N)c3C)nnc(C)c2cc1C(=O)N1CC(F)C1` [Example 17, (R)-3-(1-((6-(3-fluoroazetidine-1-carbonyl)-4-methyl-7-(methylamino)phthalazin-1-yl)amino)ethyl)-2-methylbenzonitrile]: the IC50 is at most 50 nM.

In the case of `CNc1cc2c(N[C@H](C)c3cccc(C#N)c3C)nnc(C)c2cc1C(=O)N1CC2COCC2C1` (stereo partly drawn) [Example 7, 3-((1R)-1-((6-(hexahydro-1H-furo[3,4-c]pyrrole-5-carbonyl)-4-methyl-7-(methylamino)phthalazin-1-yl)amino)ethyl)-2-methylbenzonitrile], the IC50 is at most 50 nM.

The compound `CNc1cc2c(N[C@H](C)c3cccc(C#N)c3C)nnc(C)c2cc1C(=O)NCCN1CCOCC1` [Example 23, (R)-1-((1-(3-cyano-2-methylphenyl)ethyl)amino)-4-methyl-7-(methylamino)-N-(2-morpholinoethyl)phthalazine-6-carboxamide] returned a half-maximal inhibitory concentration (IC50) of at most 50 nM.

Compound `Cc1c(C#N)cccc1[C@@H](C)Nc1nnc(C)c2cc(C(=O)N3CCOCC3)c(NC3CCCC3)cc12` [Example 33] yielded an IC50 of at most 50 nM.

Compound `CNc1cc2c(N[C@H](C)c3cccc(C#N)c3C)nnc(C)c2cc1C(=O)N1CCN(C2CCCCC2)CC1` [Example 20, (R)-3-(1-((6-(4-cyclohexylpiperazine-1-carbonyl)-4-methyl-7-(methylamino)phthalazin-1-yl)amino)ethyl)-2-methylbenzonitrile] yielded a 50% inhibitory concentration (IC50) of at most 50 nM.

Turning to `CNc1cc2c(N[C@H](C)c3cccc(C#N)c3C)nnc(C)c2cc1C(=O)N1CCSCC1` [Example 2, (R)-2-methyl-3-(1-((4-methyl-7-(methylamino)-6-(thiomorpholine-4-carbonyl)phthalazin-1-yl)amino)ethyl)benzonitrile], the IC50 was at most 50 nM.

`Cc1c(C#N)cccc1[C@@H](C)Nc1nnc(C)c2cc(CN3CCN(C4CC4)CC3)c(NC3CCCC3)cc12` [Example 31, (R)-3-(1-((7-(cyclopentylamino)-6-((4-cyclopropylpiperazin-1-yl)methyl)-4-methylphthalazin-1-yl)amino)ethyl)-2-methylbenzonitrile]: the IC50 was at most 50 nM.

`CNc1cc2c(N[C@H](C)c3cccc(C#N)c3C)nnc(C)c2cc1C(=O)N1CCC1` [Example 16, (R)-3-(1-((6-(azetidine-1-carbonyl)-4-methyl-7-(methylamino)phthalazin-1-yl)amino)ethyl)-2-methylbenzonitrile]: the IC50 is at most 50 nM.

`CNc1cc2c(N[C@H](C)c3cccc(C#N)c3C)nnc(C)c2cc1CN1CCOCC1` [Example 29, (R)-2-methyl-3-(1-((4-methyl-7-(methylamino)-6-(morpholinomethyl)phthalazin-1-yl)amino)ethyl)benzonitrile] registered an IC50 of at most 50 nM.

For `CNc1cc2c(N[C@H](C)c3cc(N)cc(C(F)F)c3F)nnc(C)c2cc1C(=O)N1CCOCC1` [Example 26, (R)-(1-((1-(5-amino-3-(difluoromethyl)-2-fluorophenyl)ethyl)amino)-4-methyl-7-(methylamino)phthalazin-6-yl)(morpholino)methanone], the IC50 is at most 50 nM.

For the compound `CNc1cc2c(N[C@H](C)c3cccc(C#N)c3C)nnc(C)c2cc1C(=O)N1CCNCC1` [Example 9, (R)-2-methyl-3-(1-((4-methyl-7-(methylamino)-6-(piperazine-1-carbonyl)phthalazin-1-yl)amino)ethyl)benzonitrile], the IC50 is at most 50 nM.

In turn, `CNc1cc2c(N[C@H](C)c3cccc(C#N)c3C)nnc(C)c2cc1C(=O)N(C)C1CCOCC1` [Example 6, (R)-1-((1-(3-cyano-2-methylphenyl)ethyl)amino)-N,4-dimethyl-7-(methylamino)-N-(tetrahydro-2H-pyran-4-yl)phthalazine-6-carboxamide] showed an IC50 of at most 50 nM.

Consider `CNc1cc2c(N[C@H](C)c3cccc(C(F)(F)CO)c3)nnc(C)c2cc1C(=O)N1CCOCC1` [Example 27, (R)-(1-((1-(3-(1,1-difluoro-2-hydroxyethyl)phenyl)ethyl)amino)-4-methyl-7-(methylamino)phthalazin-6-yl)(morpholino)methanone], for which the IC50 is at most 50 nM.

Turning to `COc1cc2c(N[C@H](C)c3cccc(C#N)c3C)nnc(C)c2cc1C(=O)N1CCOCC1` [Example 32, (R)-3-(1-((7-methoxy-4-methyl-6-(morpholine-4-carbonyl)phthalazin-1-yl)amino)ethyl)-2-methylbenzonitrile], the half-maximal inhibitory concentration (IC50) is at most 50 nM.

Consider `CNc1cc2c(N[C@H](C)c3cccc(C#N)c3C)nnc(C)c2cc1C(=O)N1CCS(=O)(=O)CC1` [Example 4, (R)-3-(1-((6-(1,1-dioxothiomorpholine-4-carbonyl)-4-methyl-7-(methylamino)phthalazin-1-yl)amino)ethyl)-2-methylbenzonitrile], for which the IC50 is at most 50 nM.

The compound `CNc1cc2c(N[C@H](C)c3cccc(C#N)c3C)nnc(C)c2cc1C(=O)N1CCN(C)CC1` [Example 8, (R)-2-methyl-3-(1-((4-methyl-7-(methylamino)-6-(4-methylpiperazine-1-carbonyl)phthalazin-1-yl)amino)ethyl)benzonitrile] yielded a half-inhibitory concentration (IC50) of at most 50 nM.

Consider `CCN1CCN(C(=O)c2cc3c(C)nnc(N[C@H](C)c4cccc(C#N)c4C)c3cc2NC)CC1` [Example 12, (R)-3-(1-((6-(4-ethylpiperazine-1-carbonyl)-4-methyl-7-(methylamino)phthalazin-1-yl)amino)ethyl)-2-methylbenzonitrile], for which the half-maximal inhibitory concentration (IC50) is at most 50 nM.

`CNc1cc2c(N[C@H](C)c3cccc(C#N)c3C)nnc(C)c2cc1C(=O)N1CCN(C2CC2)CC1` [Example 13, (R)-3-(1-((6-(4-cyclopropylpiperazine-1-carbonyl)-4-methyl-7-(methylamino)phthalazin-1-yl)amino)ethyl)-2-methylbenzonitrile] returned an IC50 of at most 50 nM.
